According to patent publication US20250248979A1, “NOVEL GPX4 INHIBITORS AND USES THEREOF” (THE TRUSTEES OF COLUMBIA UNIVERSITY IN THE CITY OF NEW YORK, priority 2022, published 2025):
Residue numbers refer to the chain shown, from its start. Like-named read-outs stand apart in the source and are kept apart here.

What was measured:
[1] = target: T1, GPX4^U46C (Homo sapiens, UniProt P36969, U73C); assay: Protein crystallography of inhibitor complexes
T1 construct: made in house; host or cells: E. coli BL21-Gold (DE3)
T1 sequence (P36969 1-170 isoform P36969-2 U46C): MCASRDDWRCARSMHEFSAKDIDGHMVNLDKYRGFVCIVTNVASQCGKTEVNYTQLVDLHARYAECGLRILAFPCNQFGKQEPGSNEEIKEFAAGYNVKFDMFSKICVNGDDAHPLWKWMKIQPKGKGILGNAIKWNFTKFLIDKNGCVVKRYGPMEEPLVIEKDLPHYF
Experimental: GPX4^U46C was pre-incubated with covalent inhibitors before crystallization using conditions that were optimized with monitoring on intact protein MALDI MS analysis. 40 μM GPX4^U46C was incubated with 375 μM LOC1886 in the reaction buffer (20 mM Tris pH 9.0, 100 mM NaCl, 2 mM TCEP, 1.5% DMSO) at 37° C. for 4 hours and then 4° C. overnight. Covalent binding was confirmed using intact protein MALDI MS analysis. The protein-inhibitor complex was then exchanged into crystallization buffer (20 mM Tris, pH 8.0, 300 mM NaCl, 3 mM TCEP) and concentrated to 5 mg/mL.
Protein samples of GPX4^U46C in complex with LOC1886 were initially screened at the High-Throughput Crystallization Screening Center of the Hauptman-Woodward Medical Research Institute (HWI) (hwi.buffalo.edu/high-throughput-crystallization-center/) (Luft et al. 2003). The most promising crystal hits were reproduced using under oil micro batch method at 23° C. […]
GPX4^U46C with LOC1886 diffracted X-ray at the beamline NE-CAT24-ID-C to resolution 1.93 Å. […] The structure of each protein was determined by molecular replacement method using MOLREP program and the crystal structures of GPX4^U46C (PDB id: 7L8K) and GPX4^U46C-R152H (PDB id: 7L8L) were both used as search models for structure determination (Vagin and Teplyakov, 2010). […]

[2] = target: T2, GPX4 (Homo sapiens, UniProt P36969); assay: Western blot assay of GPX4 protein degradation; assay type: cell-based
T2 sequence (P36969 1-170 isoform P36969-2): T1 sequence (P36969 1-170 isoform P36969-2 U46C) with C46U
Experimental: HT-1080 cells were seeded at 250,000 cells per well in a 6-well plate and incubated 37° C. with 5% CO2 overnight. The next day, cells were treated with vehicle alone or the compound of interest with 10 μM Fer-1 for 10 hours. Compounds were dissolved in DMSO. Cells were harvested with trypsin, washed with cold PBS, and lysed in RIPA buffer containing complete Protease Inhibitor Cocktail mini tablets (Roche) on ice for 30 minutes. Samples were then centrifuged at 14,000×g for 15 minutes at 4° C. Supernatants were collected and protein concentrations were determined using the BCA Protein Assay Kit (Pierce). Concentrations were normalized across samples and mixed with 6×SDS-PAGE Sample Loading Buffer (G Biosciences). Protein samples were then loaded on a NuPAGE Novex 4-12% Bis-Tris protein gel and run in MES buffer (Invitrogen) at 100V for 10 minutes then 200V for an additional 30 minutes. Proteins were transferred to a PVDF membrane (Invitrogen) using the iBlot 2 Gel Transfer Device. The membrane was washed with PBS, then blocked using Intercept Blocking Buffer (LICOR) for one hour. The membrane was then incubated with the primary antibodies in a 1:1 solution of blocking buffer and PBST (PBS+0.1% Tween 20) overnight at 4° C. […] The blot was imaged using a LI-COR Odyssey CLx IR scanner and results were quantified in ImageJ and GraphPad Prism 9.

[3] = target: T3, GPX1 (Homo sapiens, UniProt P07203); assay: GPX1 activity assay in cell lysates; assay type: biochemical; set-up: endogenous in cells; host or cells: A-673 cell lysate
T3 sequence (P07203 1-203): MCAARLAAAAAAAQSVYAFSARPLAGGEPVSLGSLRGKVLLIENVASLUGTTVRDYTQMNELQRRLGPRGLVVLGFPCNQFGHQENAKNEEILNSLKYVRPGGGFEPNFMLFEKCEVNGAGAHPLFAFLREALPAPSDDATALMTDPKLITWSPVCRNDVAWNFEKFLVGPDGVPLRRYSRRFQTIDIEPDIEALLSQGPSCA
Experimental: Determination of GPX1 activity in cell lysates was performed as previously described by Stolwijk et al. with some modifications (Stolwijk et al. 2020). GPX1 and GPX4 activity were not evaluated simultaneously in the same assay as in the published protocol to maximize signal-to-noise with the GPX1 substrate. Again, NADPH consumption, as determined by the reduction in the absorbance at 340 nm, over time was monitored as a proxy for GPX1 activity, which, like GPX4, reduces its substrates using glutathione as a reductant. 100 μM hydrogen peroxide was selected as the GPX1 substrate in this assay. A-673 cell lysates and assay setup were performed as above for the GPX4 activity assay. All conditions were tested in triplicate. Buffer-only controls and controls without substrate containing only Milli-Q water vehicle were performed to assess background and baseline signal. GPX1 activity was calculated as reported by Stolwijk et al. 2020 and results were analyzed in GraphPad Prism 9.

[4] = target: T3, GPX1; assay: Degradation of endogenous GPX1 in HT-1080 cells; assay type: cell-based; set-up: endogenous in cells
[5] = system: SU-DHL-5; assay: Cytotoxicity in DLBCL cells, SU-DHL-5; assay type: cell-based, human; details: for IC50: SU-DHL-5
[6] = system: SU-DHL-2; assay: Cytotoxicity in DLBCL cells, SU-DHL-2; assay type: cell-based, human; details: for IC50: SU-DHL-2
[7] = Fer-1 1.0 μM, read-out: IC50 (μM) with Fer-1

Row | SMILES | binding site in co-crystal structure [1] | Selectivity^a (fold) [5] [fold] | IC50 [5, 7] [µM] | Selectivity^a (fold) [6] [fold] | IC50 ([6]; 24 h, read-out: IC50) [µM] | IC50 [6, 7] [µM] | further results
1 | COc1cccc2[nH]c(C(=O)n3ccnc3)cc12 [LOC1886, reference compound] | bound to allosteric sites C66 and C10 of GPX4^U46C | – | – | – | – | – | GPX4 protein degradation, result in words ([2]; HT-1080 cells): inhibits and degrades GPX4
2 | CC(C)(COC(=O)CCl)NC(=O)c1cc2ccc(Br)cc2[nH]1 [QW-156] | – | – | – | – | – | – | GPX1 inhibition ([3]; 200 μM): approximately 30%
3 | Cn1nc(C(=O)NC(C)(C)COC(=O)CCl)c2ccc(Br)cc21 [QW-314] | covalently binds to the mutant cysteine in the U46 residue | – | – | – | – | – | GPX4 protein degradation, result in words [2]: induces GPX4 protein degradation in HT-1080 cells; GPX1 activity assay effect [3]: no inhibitory effect; selectivity for GPX4 over GPX1, result in words [3]: high selectivity for GPX4 over GPX1
4 | CC(C)(COC(=O)CCl)NC(=O)c1nn(Cc2cc(Cl)cc(Cl)c2)c2cc(-c3ccc(N4CCOCC4)c(Cl)c3)ccc12 [QW-852] | – | >1000 | 1.58 | >1000 | 0.002 | 4.95 | GPX1 degradation [4]: less effective at degrading GPX1
5 | COC(=O)c1ccc([C@@H]2c3[nH]c4ccccc4c3C[C@@H](C(=O)OC)N2C(=O)CCl)cc1 [RSL3, reference compound] | – | 5 | 2.15 | 8 | 0.18 | 1.5 | IC50 ([5]; 24 h, read-out: IC50): 0.4 µM
